Reference: patent EP0143016A1, “Derivatives of 4-(3-alkynyloxy-2-hydroxy-propyl)-piperazin-1-yl-N-phenyl acetamide, their preparation and their therapeutical use” (RIOM LABORATOIRES- C.E.R.M. "R.L.-CERM" - (S.A.), priority 1983, dated 1985)

How the values were obtained:
[1] = system: chien anesthésié; assay: Hemodynamic effects in the anesthetized dog: heart rate; format: in vivo; conditions: duration of action (durée d'action), unit not given; dog anesthetized with chloralose; 5 mg.kg^-1 I.V.
Procedure: (§1) L'activité anti-angineuse des composés de l'invention a été étudiée chez l'animal en recherchant leurs effets hémodynamiques sur le chien anesthésié, conformément au protocole résumé ci-après.
(§2) Chez le chien anesthésié au chloralose (100 mg.kg^-1 I.V.), les paramètres suivants sont enregistrés : • - fréquence cardiaque à l'aide d'électrodes à E C G sous-cutanée reliées à un cardiotachymètre BECKMAN (dérivation D II) • - débit artériel coronaire enregistré par l'intermédiaire d'un débitmètre électromagnétique STATHAN® • - on étudie aussi l'action antitachycardisante en mesurant son activité inhibitrice des effets chronotropes positifs de l'isoprénaline.
(§3) Les différents paramètres sont enregistrés en continu sur un dynographe BECKMAN®, et on mesure en même temps la durée d'action.
(§4) Les composés de l'invention sont administrés par voie I.V. à la dose de 5 mg.kg^-1.
(§5) Les résultats enregistrés, exprimés sous forme de pourcentage de variation, sont résumés dans le tableau I ci-après.

[2] = system: chien anesthésié; assay: Hemodynamic effects in the anesthetized dog: coronary arterial flow; format: in vivo; conditions: duration of action (durée d'action), unit not given; dog anesthetized with chloralose; 5 mg.kg^-1 I.V.
Procedure: as §1, §2, §3, §4, §5

[3] = system: effets chronotropes positifs de l'isoprénaline; assay: Antitachycardic action in the anesthetized dog: inhibition of the positive chronotropic effects of isoprenaline; format: in vivo, chien; conditions: duration of action (durée d'action), unit not given; isoprenaline tachycardia; dog anesthetized with chloralose; 5 mg.kg^-1 I.V.
Procedure: as §1, §2, §3, §4, §5

SMILES | FREQUENCE CARDIAQUE D [1] | DEBIT CORONAIRE D [2] | ANTITACHY-CARDIE D [3]
CC#CC1(OCC(O)CN2CCN(CC(=O)N(C)c3ccc(Cl)cc3C(=O)c3ccccc3)CC2)CCCCC1 (stereo not drawn) [compound 2] | 60 | 3 | 60
C#CC1(OCC(O)CN2CCN(CC(=O)Nc3ccc(Cl)cc3C(=O)c3ccccc3Cl)CC2)CCCCC1 (stereo not drawn) [compound 4, 4-[3-(1-ethynyl-cyclohexyloxy)-2-hydroxy-propyl]-piperazin-1-yl-N-[4-chloro-2-(2-chlorobenzoyl)-phenyl] acetamide] | >15 | 1 | 35
C#CC(C)(OCC(O)CN1CCN(CC(=O)Nc2ccc(Cl)cc2C(=O)c2ccccc2Cl)CC1)c1ccccc1 (stereo not drawn) [compound 6, 4-[3-(α-ethynyl-α-methyl-benzyloxy)-2-hydroxy-propyl]-piperazin-1-yl-N-[2-(2-chlorobenzoyl)-4-chloro-phenyl]acetamide] | >45 | 3 | 15
C#CC1(OCC(O)CN2CCN(CC(=O)N(C)c3ccc(Cl)cc3C(=O)c3ccccc3)CC2)CCCCC1 (stereo not drawn) [compound 7] | >15 | 2 | 5
CC#CC1(OCC(O)CN2CCN(CC(=O)Nc3ccc(Cl)cc3C(=O)c3ccccc3Cl)CC2)CCCCC1 (stereo not drawn) [compound 9] | 5 | 2 | 5
C#CC(C)(OCC(O)CN1CCN(CC(=O)N(C)c2ccc(Cl)cc2C(=O)c2ccccc2)CC1)c1ccccc1 (stereo not drawn) [compound 10] | 15 | 0,5 | 15
